Reference: patent publication US20110172193A1, “PRO-DRUGS OF (E)-7-(3-(2-AMINO-1-FLUOROETHYLIDENE)PIPERIDIN-1-YL)-1-CYCLOPROPYL-6-FLUORO-8-METHOXY-4-OXO-1,4-DIHYDROQUINOLINE-3-CARBOXYLIC ACID” (priority 2010, published 2011)
Like-named read-outs stand apart in the source and are kept apart here.

Experiments:
[1] = Aqueous solubility, modified procedure (saturated solutions, RP-HPLC); type: physicochemical; conditions: thermodynamic from solid, 100 mM phosphate buffer
Method: In these cases, the samples were targeted at a pH of 4 and 7 and were measured exclusively using 100 mM phosphate buffers. For both pH's, measured samples were initially prepared at ˜3 mg/ml and ˜10 mg/ml concentrations and for samples that dissolved rapidly, additional compound was added to the solution until saturated solutions were obtained.

[2] = In vitro bioconversion of pro-drug to parent drug in mouse blood, plasma, liver and kidney extract; type: in vitro ADME; conditions: for Peak Area of pro-drug: 37° C. heating block
Method: Compound concentrations were normalized to parent drug content by multiplying by a ratio of the relative molecular weights. Time 0 (minute) samples were prepared by immediately diluting with an equal volume of acetonitrile, vortexing, and transferring the samples to ice. […] Representative compounds of the present invention and the parent compound were analyzed by reversed-phase HPLC using an Agilent 1100 system. […] The solvent flow rate was 1 mL/min, and the column temperature was 40° C. Compound and parent peak identification was by diode array detection, monitored at 300 nm Conversion of the compounds (prodrugs) to parent drug was estimated by peak areas (A300 nm, mAU) of the respective agents. Mouse whole blood and plasma were collected from Swiss Webster mice, and stored at 4° C. until use (within 48 hours). […] For these experiments, fresh whole mouse livers or kidneys were homogenized for approximately 30 seconds (Omni-Tip™ disposable homogenizer tip) in 1 mL sterile saline and immediately stored on ice. Crude extracts (non-centrifuged) were incubated with the test compound or parent (20 μg/mL) and processed as described above.

[3] = In vitro bioconversion of pro-drug to parent drug in human blood and plasma; type: in vitro ADME; conditions: for Peak Area of pro-drug: 37° C.; for Conversion to the parent compound (summary in words): human whole blood and plasma
Method: Compounds #1, #4, #6, #15, and #16, as well as the parent drug [(E)-7-(3-(2-amino-1-fluoroethylidene)piperidin-1-yl)-1-cyclopropyl-6-fluoro-8-methoxy-4-oxo-1,4-dihydroquinoline-3-carboxylic acid] (the compound of formula (M)) were dissolved to 1 mg/mL, and diluted to 20 ng/mL in fresh, chilled (4° C.) human or mouse whole blood or plasma, or kidney and liver extract (prepared from the respective fresh mouse organs as described below). Compound concentrations were normalized to parent drug content by multiplying by a ratio of the relative molecular weights. Time 0 (minute) samples were prepared by immediately diluting with an equal volume of acetonitrile, vortexing, and transferring the samples to ice. For additional time points, samples were placed in an incubator (Tables 4 and 5), or in a heating block (Tables 6-12) at 37° C. for the indicated time, then immediately vortexed with an equal volume of acetonitrile and placed on ice. Samples were centrifuged and further diluted with an equal volume of water to a final concentration of 25% acetonitrile prior to analysis by HPLC; diluted samples were retained in the cooled (4° C.) HPLC sample injection chamber pending injection.
Representative compounds of the present invention and the parent compound were analyzed by reversed-phase HPLC using an Agilent 1100 system. Samples were injected onto a Zorbax SB-C18 column (3.5 μM, 4.6×150 mm) with a guard cartridge, and developed on a gradient of 15% aqueous acetonitrile in 0.1% trifluoroacetic acid to 85% aqueous acetonitrile in 0.1% trifluoroacetic acid over 10 minutes. The solvent flow rate was 1 mL/min, and the column temperature was 40° C. Compound and parent peak identification was by diode array detection, monitored at 300 nm Conversion of the compounds (prodrugs) to parent drug was estimated by peak areas (A300 nm, mAU) of the respective agents.
For studies with Compounds #1, #4 and #6 (with results as listed in Tables 8, 9 and 10), fresh human whole blood and plasma samples were purchased from BioChemed Services, shipped in Styrofoam coolers maintained with frozen cold packs, and used within 48 hours of receipt. For studies with Compounds #15 and #16 (with results as listed in Tables 11 and 12), blood was drawn from volunteers and whole blood samples and isolated plasma prepared and immediately placed on ice. Whole blood and plasma samples were maintained at 4° C. and used within approximately 30 hours.

[4] = test system: Staphylococcus aureus (OC8525), a methicillin-resistant strain (MRSA); assay: In vivo efficacy in a mouse systemic infection model; conditions: Staphylococcus aureus, 72 h, Swiss Webster mice infected i.p. with MRSA, 3 day survival, normalized to parent content
Method: Female Swiss Webster mice weighing between 20-25 g were infected intraperitoneally with approximately 5×10^5 colony forming units (CFU) Staphylococcus aureus (OC8525), a methicillin-resistant strain (MRSA), in 7% mucin. One hour later, the animals were given the test compound intravenously or orally in a dose volume of 0.2 mL. Each animal test group consisted of eight animals. The test compounds were prepared immediately before dosing in 5% dextrose in water (D5W) and diluted further in D5W for i.v. and p.o. administration. The mice were observed over a three day period and ED50 values were calculated from the resulting % survival curves (see Table 13, below). The measured ED50 values were normalized to the content of (E)-7-(3-(2-amino-1-fluoroethylidene)piperidin-1-yl)-1-cyclopropyl-6-fluoro-8-methoxy-4-oxo-1,4-dihydroquinoline-3-carboxylic acid. For some compounds, in vivo efficacy was determined by testing a group of eight mice at a single dose level only. In these cases, the data presented in Table 13, below are reported as percent survival at the designated dose.

Rat pharmacokinetics = type: in vivo, Sprague-Dawley rats; conditions: in vivo, iv
Method: Male Sprague-Dawley rats (n=4) were fasted overnight, then dosed intravenously (IV) with a 1 mg/mL solution of a compound of the present invention (prodrug) or parent (compound of formula (M)) in 20% hydroxypropyl-β-cyclodextrin at 2 mg/kg. Blood samples were collected up to 24 hours post dose into tubes containing an anticoagulant. Blood samples were centrifuged for cell removal, and 100 μL plasma was transferred to a clean vial, placed on dry ice, and stored in a −70° C. freezer prior to analysis.
Plasma samples were prepared as follows. Two volumes of acetonitrile containing formic acid and internal standard were added to one volume of plasma to precipitate proteins. Samples were centrifuged (3000 g for 5 min) and supernatant removed for analysis by LC-MS-MS. Calibration standards were prepared by adding appropriate volumes of stock solution directly into plasma and treated identically to collected plasma samples. LC-MS-MS analysis was performed utilizing multiple reaction monitoring for detection of characteristic ions for the test compounds (pro-drugs), parent (compound of formula (M)) and internal standard.
Plasma concentrations were measured as described above to determine a concentration vs time profile. The area under the plasma concentration vs time curve (AUC) was calculated using the linear trapezoidal method. Fitting of the data to obtain pharmacokinetic parameters was carried out using non-compartmental analysis, with results as listed in Table 14, below. The term “NA” means the data was not available.

[5] = pH 4, aqueous buffer, read-out: Aqueous Solubility pH~4
[6] = pH 7, aqueous buffer, read-out: Aqueous Solubility pH~7
[7] = fresh human blood (volunteers), 0 min
[8] = fresh human blood (volunteers), 5 min
[9] = fresh human blood (volunteers), 7.5 min
[10] = fresh human blood (volunteers), 10 min
[11] = fresh human blood (volunteers), 15 min
[12] = fresh human blood (volunteers), […]
[13] = fresh human plasma (volunteers), 0 min
[14] = fresh human plasma (volunteers), 5 min
[15] = fresh human plasma (volunteers), 7.5 min
[16] = fresh human plasma (volunteers), 10 min
[17] = fresh human plasma (volunteers), 15 min
[18] = fresh human plasma (volunteers), […]
[19] = oral dose 1 h later, read-out: ED50 p.o.
[20] = iv, i.v. dose 1 h later, read-out: ED50 i.v.

Row | SMILES | solubility at 18 h [1, 5] [µg/mL] | solubility at 18 h [1, 6] [µg/mL] | Peak Area of pro-drug ([2]; fresh mouse blood, 0 min) [mAU] | Peak Area of pro-drug ([2]; fresh mouse blood, 5 min) [mAU] | Peak Area of pro-drug ([2]; fresh mouse blood, 7.5 min) [mAU] | Peak Area of pro-drug ([2]; fresh mouse blood, 10 min) [mAU] | Peak Area of pro-drug ([2]; fresh mouse blood, 15 min) [mAU] | Peak Area of pro-drug ([2]; fresh mouse blood, […]) [mAU] | Peak Area of pro-drug ([2]; fresh mouse plasma, 0 min) [mAU] | Peak Area of pro-drug ([2]; fresh mouse plasma, 5 min) [mAU] | Peak Area of pro-drug ([2]; fresh mouse plasma, 7.5 min) [mAU] | Peak Area of pro-drug ([2]; fresh mouse plasma, 10 min) [mAU] | Peak Area of pro-drug ([2]; fresh mouse plasma, 15 min) [mAU] | Peak Area of pro-drug ([2]; fresh mouse plasma, […]) [mAU] | Peak Area of pro-drug [3, 7] [mAU] | Peak Area of pro-drug [3, 8] [mAU] | Peak Area of pro-drug [3, 9] [mAU] | Peak Area of pro-drug [3, 10] [mAU] | Peak Area of pro-drug [3, 11] [mAU] | Peak Area of pro-drug [3, 12] [mAU] | also measured
1 | COc1c(N2CCC/C(=C(\F)CNC(=O)[C@@H]3CCCN3C(=O)[C@@H](N)CCCCN)C2)c(F)cc2c(=O)c(C(=O)O)cn(C3CC3)c12.Cl.Cl [Compound 15, 1-Cyclopropyl-7-[3-(2-{[(2S)-1-((2S)-2,6-diamino-hexanoyl)-pyrrolidine-2-carbonyl]-amino}-1-fluoro-ethylidene)-piperidin-1-yl]-6-fluoro-8-methoxy-4-oxo-1,4-dihydro-quinoline-3-carboxylic acid dihydrochloride] | > 4600 | > 11100 | 265 | 75 | 36 | 29 | 17 | 123 | 488 | 106 | 72 | 62 | 22 | 182 | 242 | 23 | 10 | 8 | 6 | 59 | Conversion to the parent compound (summary in words) ([2]; mouse whole blood and plasma): converted to the parent; Peak Area of pro-drug [3, 13]: 330 mAU; Peak Area of pro-drug [3, 14]: 26 mAU; Peak Area of pro-drug [3, 15]: 14 mAU; Peak Area of pro-drug [3, 16]: 10 mAU; Peak Area of pro-drug [3, 17]: 11 mAU; Peak Area of pro-drug [3, 18]: 75 mAU; Conversion to the parent compound (summary in words) [3]: converted to the parent; ED50 [4, 19]: > 13 mg/kg; ED50 [4, 20]: 1.6 mg/kg; Conversion to the parent drug in vivo (in words) (Rat pharmacokinetics): rapidly converted to the parent drug
2 | COc1c(N2CCC/C(=C(\F)CNC(=O)CNC(=O)[C@@H](N)CCC(=O)O)C2)c(F)cc2c(=O)c(C(=O)O)cn(C3CC3)c12.Cl [Compound 16, 7-(3-{2-[2-((2S)-2-Amino-4-carboxy-butyrylamino)-acetylamino]-1-fluoro-ethylidene}-piperidin-1-yl)-1-cyclopropyl-6-fluoro-8-methoxy-4-oxo-1,4-dihydro-quinoline-3-carboxylic acid hydrochloride] | > 3690 | > 3360 | 332 | 131 | 99 | 71 | 34 | 174 | 406 | 220 | 178 | 149 | 98 | 285 | 370 | 332 | 342 | 374 | 359 | 336 | Conversion to the parent compound (summary in words) ([2]; mouse plasma): converted to an unknown metabolite, but not substantially to the parent drug; Conversion to the parent compound (summary in words) ([2]; mouse whole blood): converted to the parent in mouse whole blood via the intermediacy of a metabolite of unknown identity; Peak Area of pro-drug [3, 13]: 351 mAU; Peak Area of pro-drug [3, 14]: 355 mAU; Peak Area of pro-drug [3, 15]: 366 mAU; Peak Area of pro-drug [3, 16]: 372 mAU; Peak Area of pro-drug [3, 17]: 371 mAU; Peak Area of pro-drug [3, 18]: 350 mAU; Conversion to the parent compound (summary in words) [3]: not measured to convert to the parent drug; ED50 [4, 19]: > 13.9 mg/kg; ED50 [4, 20]: 1.6 mg/kg; Conversion to the parent drug in vivo (in words) (Rat pharmacokinetics): rapidly converted to the parent drug
